Laboratory results taken from PMC8698672, “Selective Anticancer and Antimicrobial Metallodrugs Based on Gold(III) Dithiocarbamate Complexes” (Biomedicines, 2021).

What was measured:
[1] = molecular target: T1, BSA (Bos taurus, UniProt P02769); assay: BSA interaction, fluorescence quenching (Stern–Volmer); format: binding, bovine; conditions: for bimolecular quenching constant kq: BSA 50 μM in PBS pH 7.4; for Stern–Volmer quenching constant KSV: BSA 50 μM in PBS pH 7.4, excitation 295 nm; for number of binding sites n: modified Stern–Volmer equation; for number of binding sites n, rounded (in brackets): whole number printed in brackets after n
T1 construct: purchased Sigma Aldrich
Method: BSA was commercially available from Sigma Aldrich. A 2 mM solution of BSA was prepared in PBS (10 mM, pH = 7.4). The final concentration of the stock BSA solution was checked by UV–Vis spectra (ε279 nm = 43,824 M^−1 cm^−1). The value obtained was the real concentration of the stock solution. A 6 mM stock solution of the gold complexes in DMSO was prepared and different aliquots of the gold complex were added to a 50 μM solution of BSA in PBS and placed in a quartz cuvette of 1 cm optical path. The fluorescence spectra were recorded on a Horiba Jobin Yvon (Bensheim, Germany) fluorolog FL-3-11 spectrometer. The samples were excited at 295 nm and the emission spectra were recorded in a range from 310 to 450 nm with emission slits set to 2 nm. The fluorescence was measured for 4 min after every addition of the gold complex aliquots. The fluorescence intensities of the PBS and the gold complexes were irrelevant under the described conditions.
The data were analyzed using the Stern−Volmer equation F0/F = 1 + KSV (gold complex) = 1 + Kqτ0 (gold complex) (τ0 = lifetime of BSA in absence of the quencher) to obtain the Stern−Volmer quenching constant (KSV) and the quenching rate constant (Kq). The binding constant (Kb) was quantified using the modified Stern−Volmer equation: log {(F0 − F)/F} = log Kb + n log (gold complex) (n = number of binding sites).
This intrinsic fluorescence is extremely sensitive to the environment, so any binding or interaction of molecules induces changes in the BSA emission spectrum. Consequently, interaction with BSA studies are based on monitoring the BSA luminescence in the range of 300–450 nm by adding increasing concentrations of Au(III) complexes (Figure 3a and Figure S6). The obtained fluorescence data were analyzed using the Stern–Volmer equation, which allows the Stern-Volmer quenching constant KSV and the bimolecular quenching constant kq to be calculated (Figure 3b). In most of the cases studied, the Stern–Volmer representation fit a straight line, indicative of a single quenching mode, either static or dynamic. In case of drug development, static quenching is usually required to probe an interaction between the drug and the protein. By studying the bimolecular quenching constant (kq), the operated quenching can be determined since this parameter represents the efficiency of quenching or how accessible the fluorophores are to the quencher. Dynamic quenching depends on diffusion processes, so a higher kq value than the diffusion-controlled rate constant of the biomolecule in water, 10^10 M^−1s^−1, may indicate a contribution of static quenching. […] Additionally, the modified Stern–Volmer equation permits the values of the binding constant (Kb) for each gold complex and the number of binding sites (n) to be calculated. According to the Kb values observed in Table 3, there was a moderated interaction force between complex-BSA. These values were higher than other reported for gold(I) complexes, but similar to the documented interactions for potential drugs based on ruthenium or nickel.

[2] = test system: methicillin-resistant Staphylococcus aureus (Sa); format: cell-based; conditions: 18 h, 37 °C, inhibition ≥ 80%
Method: The antimicrobial assays were performed according to the protocols of the Community for Open Antimicrobial Drug Discovery (CO-ADD). C1–6 were prepared in DMSO and water to a final testing concentration of 32 μg/mL and serially diluted 1:2-fold 8 times. Each sample concentration was prepared in 384-well plates, non-binding surface plate (NBS; Corning 3640) for each bacterial/fungal strain, all in duplicate (n = 2), and keeping the final DMSO concentration to a maximum of 0.5%. All the sample preparation was done using liquid-handling robots.
The antibacterial activity of all synthesized complexes was evaluated in five different pathogenic bacteria, including methicillin-resistant Staphylococcus aureus (Sa), Escherichia coli (Ec), Klebsiella pneumonia (Kp), Psedomonas aeruginosa (Pa), and Acinetobacter baumannii (Ab). All bacteria were cultured in cation-adjusted Mueller Hinton Broth (CAMHB) at 37 °C overnight. A sample of each culture was then diluted 40-fold in fresh broth and incubated at 37 °C for 1.5–3 h. The resultant mid-log phase cultures were diluted (CFU/mL measured by OD600), then added to each well of the complexes containing plates, giving a cell density of 5 × 10^5 CFU/mL and a total volume of 50 μL. All the plates were covered and incubated at 37 °C for 18 h without shaking. The inhibition of bacterial growth was determined by measuring the absorbance at 600 nm (OD600) using a Tecan M1000 Pro monochromator plate reader (Männedorf, Switzerland). The percentage of growth inhibition was calculated for each well, using the negative control (media only) and positive control (bacteria without inhibitors) on the same plate as references. […]

[3] = n-octanol/water partition coefficient, shake-flask method; format: physicochemical; conditions: n-octanol / buffered saline pH 7.4, shake-flask
Method: The n-octanol/water coefficient of the complexes was determined using the shake-flask method previously described. Buffered-saline distilled water (100 mL, phosphate buffer PO4^3− = 10 mM, (NaCl = 0.15 M, pH 7.4) and n-octanol (100 mL) were shaken together for 72 h to allow the saturation of both phases. Approximately 1 mg of the complexes was dissolved in 5 mL of the aqueous phase, and 5 mL of the organic phase was added, mixing for 10 min. The resulting emulsion was centrifuged to separate the phases. The concentration of the compounds in each phase was determined using UV−Vis absorbance spectroscopy. Log P7.4 was calculated as log (Absorganic/Absaqueous).
Biodistribution studies should be conducted to evaluate whether our complexes could reach their pharmacological target. The potential biodistribution of our complexes was evaluated by the measure of the partition coefficient. This parameter indicates how balanced the lipo- and hydrophilicity of the compounds are. Good equilibrium between these two properties is crucial for proper distribution inside the organism. The bloodstream is aqueous in nature, so hydrophilicity is needed for drug delivery, but too-high hydrophilicity can hinder the penetration of biological membranes. Of course, high lipophilicity behavior can hinder biomedical applications related to a good distribution profile. The chosen method to measure the partition coefficient (Log Pow) was the shake-flask technique, with ideal values in the range of −1 ≤ Log P ow ≤ 3. However, for a greater oral and intestinal absorption, a more restricted range has values around 1.35–1.80 [57]. Table 2 collects all of the obtained Log Pow values, and it can be seen that, although only complex [Au(ppy)(dedtc)]PF6 (C4) satisfied this restricted range, all of them presented acceptable values of Log Pow.

| Molecule | bimolecular quenching constant kq [1] [M⁻¹ s⁻¹] | Stern–Volmer quenching constant KSV [1] [M⁻¹] | number of binding sites n [1] | number of binding sites n, rounded (in brackets) [1] | MIC Sa [2] [µg/mL] | Log Pow [3] |
| --- | --- | --- | --- | --- | --- | --- |
| Cc1ccc(-c2ccccn2)[c]([Au+][S]C(=S)N(C)C)c1.F[P-](F)(F)(F)(F)F [Complex C1, [Au(tpy)(dmdtc)] PF6] | 1.3e+12 | 13000 | 1.72 | 2 | ≤0.25 | 0.61 |
| CN(C)C(=S)[S][Au+][c]1ccccc1-c1ccccn1.F[P-](F)(F)(F)(F)F [Complex C2, [Au(ppy)(dmdtc)]PF6] | 1.37e+12 | 13700 | 1.42 | 1 | ≤0.25 | 1.11 |
| CCN(CC)C(=S)[S][Au+][c]1cc(C)ccc1-c1ccccn1.F[P-](F)(F)(F)(F)F [Complex C3, [Au(tpy)(dedtc)]PF6] | 1.9e+12 | 19000 | 0.95 | 1 | ≤0.25 | 1.17 |
| Cc1ccc2[c](c1)[Au-]1([S]C(N(Cc3ccccc3)Cc3ccccc3)=[S+]1)[n+]1ccccc1-2.F[P-](F)(F)(F)(F)F (stereo not drawn) [Complex C5, [Au(tpy)(dbdtc)]PF6] | 4.43e+12 | 44300 | 1.57 | 1–2 | 32 | 0.89 |
| F[P-](F)(F)(F)(F)F.S=C([S][Au+][c]1ccccc1-c1ccccn1)N(Cc1ccccc1)Cc1ccccc1 [Complex C6, [Au(ppy)(dbdtc)]PF6] | 6.44e+12 | 64400 | 1.43 | 1 | 4 | 1.00 |
| [Au(ppy)(dedtc)]PF6 [Complex C4] | 2.01e+12 | 20100 | 1.18 | 1 | ≤0.25 | 1.57 |
